Assay results: patent US20250090510A1, “eIF4G1-eIF1 INHIBITORS AND USE THEREOF” (YEDA RESEARCH AND DEVELOPMENT CO. LTD., priority 2022, published 2025)

What was measured:
parental NIH3T3 cells = experiment: Polysome profiling and real-time PCR in parental cells; assay type: cell-based, mouse; conditions: i14G1-10 30 μM, i14G1-12 15 μM, 3 h
HEK293T cells = experiment: Polysome profile by sucrose gradient sedimentation; assay type: cell-based, human; conditions: i14G1-12 10 μM, 3 h; for 80S monoribosomes in polysome profile: i14G1-10 20 μM
Protocol: FIGS. 3A-F: i14G1-10 and i14G1-12 inhibit mRNA translation and sensitize cell survival of eIF4G1 and eIF1 depleted cells. (3A) In-vitro translation using rabbit reticulocyte lysate which was pre-incubated with different concentrations of i14G1-10 or i14G1-12 for 10 minutes followed by the addition of capped firefly luciferase mRNA. After 90 minutes at 30° C., the luminescence signal was measured and the IC50 was calculated. The data represents mean±SEM of 6 independent repeats. (3B) HEK293T cells were treated with DMSO (vehicle control), and sub-cytotoxic concentrations of i14G1-10 (20 μM) and i14G1-12 (10 μM) for 3h. Cell lysates were then subjected to sucrose gradient sedimentation to obtain polysome profiles. (3C) HEK293T cells were treated with the indicated concentrations of i14G1-10 and i14G-12 for 3 h, followed by the addition of puromycin (10 μg/ml) for 5 minutes, after which cells were lysed and analyzed by western blot using an anti-puromycin antibody and anti-GAPDH antibody that serves as a loading control. The graph represents the mean±SEM chemiluminescence signal intensity of puromycin labeling normalized to GAPDH of 3 independent experiments. The calculated IC-50 is shown. (3D) HEK293T cells were transfected with either control or eIF4G1 siRNA in the absence or presence of eIF4G1 expression plasmid. As the eIF4G1 siRNA pool is directed against the 3′UTR, which is absent from the eIF4G1 expression plasmid, the exogenous eIF4G1 is resistant to the siRNA. […] The calculated IC-50 is shown. (3E) The graphs represent cell viability of the indicated cell lines in the presence of increasing concentrations of i14G1-10 and i14G1, analyzed by Luminescent Cell Viability Assay. […]
Polysome profile and real-time PCR. […] Gradients were fractionated with continuous absorbance measurement at 254 nm using ISCO absorbance detector UA-6. Fractions were pooled according to their absorbance into Free, Light, and Heavy ribosomal fractions. […]

U20S = experiment: CellTiter-Glo luminescent cell viability assay; assay type: cell-based; conditions: bone cancer sarcoma cell line (U20S), increasing concentrations, 48 h
Protocol: (§1) FIGS. 3A-F: i14G1-10 and i14G1-12 inhibit mRNA translation and sensitize cell survival of eIF4G1 and eIF1 depleted cells. (3A) In-vitro translation using rabbit reticulocyte lysate which was pre-incubated with different concentrations of i14G1-10 or i14G1-12 for 10 minutes followed by the addition of capped firefly luciferase mRNA. After 90 minutes at 30° C., the luminescence signal was measured and the IC50 was calculated. The data represents mean±SEM of 6 independent repeats. (3B) HEK293T cells were treated with DMSO (vehicle control), and sub-cytotoxic concentrations of i14G1-10 (20 μM) and i14G1-12 (10 μM) for 3h. Cell lysates were then subjected to sucrose gradient sedimentation to obtain polysome profiles. (3C) HEK293T cells were treated with the indicated concentrations of i14G1-10 and i14G-12 for 3 h, followed by the addition of puromycin (10 μg/ml) for 5 minutes, after which cells were lysed and analyzed by western blot using an anti-puromycin antibody and anti-GAPDH antibody that serves as a loading control. The graph represents the mean±SEM chemiluminescence signal intensity of puromycin labeling normalized to GAPDH of 3 independent experiments. The calculated IC-50 is shown. (3D) HEK293T cells were transfected with either control or eIF4G1 siRNA in the absence or presence of eIF4G1 expression plasmid. As the eIF4G1 siRNA pool is directed against the 3′UTR, which is absent from the eIF4G1 expression plasmid, the exogenous eIF4G1 is resistant to the siRNA. 48 h after transfection, cells were treated with the indicated concentrations of i14G1-10 and i14G-12 for 3 h, followed by a 5 minutes puromycin pulse as described in 3C. The graph represents the mean±SEM chemiluminescence signal intensity of puromycin labeling normalized to GAPDH of 3 independent experiments. The calculated IC-50 is shown. (3E) The graphs represent cell viability of the indicated cell lines in the presence of increasing concentrations of i14G1-10 and i14G1, analyzed by Luminescent Cell Viability Assay. (3F) Pie charts showing the cell cycle distribution of HEK293T cells treated with DMSO, i14G1-10 and i14G1-12.
(§2) The indicated cell lines in 96-well plates were treated with increasing concentrations of i14G1-10 and i14G1-12. After 48 h, cells were subjected to cell viability measurement using CellTiter-Glo Luminescent Assay (Cat no. G7571, Promega).
(§3) This was true in breast cancer (MCF7), lung cancer (A549), colorectal cancer (HCT116), ovarian cancer (OVCAR8) and in a bone cancer sarcoma cell line (U20S). To examine whether the growth defect is associated with cell cycle progression, control and drug treated cells were subjected to DNA staining by propidium iodide and then a flow cytometry analysis to determine their distribution in the sub-G1 (dead cells), G1, S and G2/M phases of the cell cycle.

HCT116 = experiment: CellTiter-Glo luminescent cell viability assay; assay type: cell-based; conditions: colorectal cancer (HCT116), increasing concentrations, 48 h
Protocol: as §1, §2, §3

MCF7 = experiment: CellTiter-Glo luminescent cell viability assay; assay type: cell-based; conditions: breast cancer (MCF7), increasing concentrations, 48 h
Protocol: as §1, §2, §3

A549 = experiment: CellTiter-Glo luminescent cell viability assay; assay type: cell-based; conditions: lung cancer (A549), increasing concentrations, 48 h
Protocol: as §1, §2, §3

OVCAR8 = experiment: CellTiter-Glo luminescent cell viability assay; assay type: cell-based; conditions: ovarian cancer (OVCAR8), increasing concentrations, 48 h
Protocol: as §1, §2, §3

Structure (SMILES) | overall translation, polysome to monosome ratio (P/M) (parental NIH3T3 cells) | translation of ISR genes in polysome fractions (parental NIH3T3 cells) | 80S monoribosomes in polysome profile (HEK293T cells) | growth/survival (U20S) | growth/survival (HCT116) | growth/survival (MCF7) | growth/survival (A549) | growth/survival (OVCAR8) | heavy polysomal fractions in polysome profile (HEK293T cells)
O=C(/C=C/Sc1ccc(C(F)(F)F)cn1)c1ccccc1 [i14G1-10] | significant reduction in translation efficiency | upregulated | increase in 80S monoribosomes | inhibited the growth/survival | inhibited the growth/survival | inhibited the growth/survival | inhibited the growth/survival | inhibited the growth/survival | 
Cn1ccnc1S/C(=C/C=C(C#N)C#N)c1ccc(Cl)cc1 [i14G1-12] | significant reduction in translation efficiency | upregulated | increase in 80S monoribosomes | inhibited the growth/survival | inhibited the growth/survival | inhibited the growth/survival | inhibited the growth/survival | inhibited the growth/survival | substantial decrease in the heavy polysomal fractions
